Assay [1] has as its system osteoblast-line cells (mouse MC3T3-E 1 and human TE-85). As to the kind of experiment: Osteoblast cell proliferation (3H-thymidine incorporation). In kind it is cell-based. The note with it: MC3T3-E1, control is 100%, cell line (MC3T3-E 1 or TE-85) not stated per value, read-out: Osteoblast Prolif (% XControl@ 0.01 uM). An excerpt: Compounds of the present invention have utility to treat bone wasting diseases including osteoporosis in animals including humans through enhancement of bone calcification as well as inhibition of bone degeneration or resorption. The compounds of the present invention have been evaluated as inhibitors of human prostatic tyrosyl phosphatase, an isoenzyme similar to a tyrosyl phosphatase present in human osteoblasts. Inhibitors of the enzyme are involved with the stimulation of osteoblast cell proliferation in cell culture which is predictive of enhancement of bone mass and bone formation in vivo. Inhibitors of osteoclastic acid phosphatase prevent the resorptive action of osteoclasts and thereby prevent the degradation of bone mass associated with osteoporosis. Table 1 reports the results of the compounds of the present invention in inhibiting human prostatic tyrosyl phosphatase and osteoclastic acid phosphatase. […] Their ability to stimulate osteoblast cell proliferation at 0.01 uM concentration is presented also in Table 1. […] However, such compounds may be useful as prodrugs to the acid (R^1 and R^2 equal H) and as intermediates useful in making the corresponding acid.
The action of select compounds to stimulate osteoblast growth can be measured in culture by estimating the rate of DNA synthesis by the rate of ^3 H-thymidine incorporation into DNA. Only cells undergoing mitosis will synthesize new DNA and thus only these cells will incorporate the radiolabeled DNA-specific thymidine. The stimulation of the proliferation and differentiation of bone-forming cells, osteoblasts, is a prerequisite for an increase in bone formation and bone mass. The ability of agents to increase osteoblast proliferation and differentiation can be predicted by their action on cultured osteoblast-line cells in vitro. In this test, mouse (MC3T3-E 1) cloned by Sudo et al. Koriyama, Japan) and human (TE-85) osteoblast-line cells (American Type Tissue Culture Collection, #CRL 1543, Rockville, Md.) were cultured/n vitro and the effect of various agents was tested on osteoblast cell proliferation. Osteoblasts were isolated and cultured according to literature methods. [J. E. Puzas, R. H. Drivdahl, A. G. Howard, and D. J. Baylink, Proc. Soc. Exper. Biol. Med., 166 113-122, […]]. Cells were harvested from large culture flasks, where they were allowed to grow to near confluency, using trypsin. The cells were plated into 96 well culture plates, 1600 cells in 100 μL per well in Dulbecco's Modified Eagle's Medium with 25 mM HEPES buffer, L-glutamine (584 mg/L); D-glucose (4.5 g/L) supplemented with fetal bovine sera (10%); penicillin (100 units/mL)and streptomycin (100 mcg/mL); sodium pyruvate (10 μM final concentration). The cells were allowed to plate overnight in DMEM containing 10% fetal bovine sera at 37° C., in an atmosphere of 5% CO2 /95% air. Following their placement into 96 well culture plates all the osteoblast-line cells, either the MC3T3-E 1 or the TE-85 cell lines, were allowed an additional 24 hours preincubation period in media containing only 0.1% fetal bovine sera. The next day the test compounds were added and screened at concentrations ranging from 10^-4 to 10^-8 M depending on the study. Twenty hours later, a 20 μL aliquot of media containing 0.4 μCi of ^3 H-thymidine was added to each culture well. The cells were then incubated an additional 4 hours. The incubation was terminated by aspirating the media and washing with HBSS (Hank's Balanced Salt Solution). The cells were then treated with 100 μL of 0.5% trypsin and […] of EDTA for 30 minutes at room temperature. The cells were then aspirated onto a glass fiber filter and washed with water. The radioactivity on the filters was quantified by liquid scintillation spectroscopy. The rate of ^3 H-thymidine incorporation into DNA is then utilized as an index of cell proliferation. The results are shown in Table 1 expressed as % times control where control is 100%.
For orientation: Dividing cells build labelled thymidine or BrdU into new DNA.

The target of assay [2] is T1, human prostatic tyrosyl phosphatase (Homo sapiens, UniProt P15309).
T1 construct: purchased Sigma Chemical Co
T1 sequence (P15309 33-386): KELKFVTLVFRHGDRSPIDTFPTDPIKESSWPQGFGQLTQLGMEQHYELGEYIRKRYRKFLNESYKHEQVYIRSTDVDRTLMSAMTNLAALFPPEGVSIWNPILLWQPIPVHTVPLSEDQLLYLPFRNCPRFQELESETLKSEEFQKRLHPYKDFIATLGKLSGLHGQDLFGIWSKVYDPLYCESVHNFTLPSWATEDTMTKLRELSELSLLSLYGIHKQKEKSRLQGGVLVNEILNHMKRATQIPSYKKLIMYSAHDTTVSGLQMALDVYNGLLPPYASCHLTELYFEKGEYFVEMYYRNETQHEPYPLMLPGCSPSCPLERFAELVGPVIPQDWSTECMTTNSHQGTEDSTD
In words: biochemical. The note with it: 30 minutes at 37° C., pH 5.5, (14C)-phosphotyrosine substrate; read-out: Tyr-Pase IC50. On the procedure: Inhibition of the activity of tyrosyl protein phosphatase was evaluated by incubating an aliquot of purified human prostatic tyrosyl protein acid phosphatase (Sigma Chemical Co.) with radiolabeled phosphotyrosine. The radiolabeled substrate, (^14 C)-phosphotyrosine, is separated from the product, (^14 C)-tyrosine by ion exchange chromatography and the production of radiolabeled tyrosine is quantified. Test compounds are screened at a concentration of one micromolar to 1 nM. The ability of test compounds to inhibit tyrosyl phosphatase was expressed as the % inhibition at the highest concentration of test compound tested and/or as the IC50 in Table 1.
The test compounds were incubated in the presence of tyrosyl acid phosphatase and radiolabeled substrate {(^14 C)-phosphotyrosine, (NEN Dupont Custom Synthesis)} plus cold O-phospho-L-tyrosine{(10 uM) (Sigma Chemical Co.)} in a 0.05 mM sodium acetate buffer (pH 5.5) for 30 minutes at 37° C. […] The incubation mixture was passed over an ion-exchange column {(Ag 1-X8) (Bio-Rad Laboratories)} and washed with 2.5 ml of distilled, deionized water. The total column effluent containing the radiolabeled product (^14 C-tyrosine) was collected and quantified by liquid scintillation spectroscopy. The test compounds IC50 was calculated using a quantal (all-or-none) dose-response calculation.

Assay [3] deals with T2, Human osteoclastic acid phosphatase (OAP) (Homo sapiens, UniProt P13686).
T2 construct: purified from hairy cell leukemia spleen; from tissue; host or cells: human hairy cell leukemia spleen
T2 sequence (P13686 22-325): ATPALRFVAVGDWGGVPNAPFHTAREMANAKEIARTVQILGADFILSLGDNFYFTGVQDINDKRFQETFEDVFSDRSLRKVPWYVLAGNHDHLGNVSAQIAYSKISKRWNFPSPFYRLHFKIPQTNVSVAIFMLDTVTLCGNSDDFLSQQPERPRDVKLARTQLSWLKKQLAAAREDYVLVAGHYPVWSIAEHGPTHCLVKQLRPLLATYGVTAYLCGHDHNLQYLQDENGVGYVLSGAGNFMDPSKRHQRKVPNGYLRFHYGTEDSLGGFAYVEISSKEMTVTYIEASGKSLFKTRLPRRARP
In words: Osteoclastic Acid Phosphatase (OAP) inhibition. Type of assay: biochemical. The note with it: for inhibition at 100 µM: read-out: OAPase % Inh@100 uM. How it is done: Inhibitors of the enzyme are involved with the stimulation of osteoblast cell proliferation in cell culture which is predictive of enhancement of bone mass and bone formation in vivo. Inhibitors of osteoclastic acid phosphatase prevent the resorptive action of osteoclasts and thereby prevent the degradation of bone mass associated with osteoporosis.
The enzyme was stored at -80° C. and was diluted in 50 mM, pH 5.0, sodium acetate buffer prior to use. Test compounds were dissolved in ethanol, DMSO, or water and tested at 100 μM. The assay measures the ability of the enzyme to dephosphorylate methylumbelliferone phosphate to the product, methylumbelliferone, which is fluorescent. The enzyme assay is performed in 50 mM, pH 5.0, sodium acetate buffer as follows: 5 μL of compound was added to 150 μL Of buffered enzyme solution. […] The reaction was performed at room temperature at pH=5.0 and terminated after 20 minutes by the addition of 50 μL of 4N NaOH. The reaction product, methylumbelliferone, was measured by fluorescence determination using a Dynatech Microfluor Fluorescence detector.

Where [4] appears, read: pH 5.0, room temperature, 20 minutes, read-out: OAPase IC50.
The mark [5] stands for this setting: pH 5.0, room temperature, 20 minutes.

Structures are written as SMILES. Like-named read-outs stand apart in the source and are kept apart here. Where only a bound is given, the exact number is not on record here.

The IC50 is the concentration needed to halve the response being measured. Take `O=P(O)(O)C(CCCCc1ccccc1)c1ccccc1` (stereo not drawn) [Cmpd 10]: the activity at 0.01 µM in assay [1] was found to be 124%. The values for the IC50 in assay [2] and in assay [3] (setting [4]) were 17.4 µM and 100 µM, respectively.
Consider `O=P(O)(O)C(Cc1ccccc1)c1ccccc1` (stereo not drawn) [Cmpd 34], for which the activity at 0.01 µM in assay [1] turned out to be 156%. Also, in assay [2], the concentration for half-maximal inhibition (IC50) worked out at 89.2 µM. In addition, the inhibition at 100 µM in assay [3] (setting [5]) is 15%.
With `Cc1ccc(C(c2ccccc2)P(=O)(O)O)cc1` (stereo not drawn) [Cmpd 22], the activity at 0.01 µM in assay [1] amounted to 116%. The half-maximal inhibitory concentration (IC50) in assay [2] turned out to be 152 µM. In addition, the inhibition at 100 µM in assay [3] (setting [5]) worked out at 22%.
On to `Cc1cccc(C(Cc2ccccc2)P(=O)(O)O)c1` (stereo not drawn) [Cmpd 29], for which, in assay [1], the activity at 0.01 µM was 99%. Further, the IC50 in assay [2] was 290 µM. The inhibition at 100 µM in assay [3] (setting [5]) was found to be 15%.
In the case of `O=P(O)(O)C(Cc1ccc(Cl)cc1)c1ccccc1` (stereo not drawn) [Cmpd 33], the activity at 0.01 µM in assay [1] was determined as 104%. Further, in assay [2], the half-maximal inhibitory concentration (IC50) was determined as 34.5 µM. Also, in assay [3] (setting [5]), the inhibition at 100 µM turned out to be 30%.
With `O=C(c1ccccc1)C(C(=O)c1ccccc1)(c1cccc2ccccc12)P(=O)(O)O` [Cmpd 55, bis(Benzoyl)(1-naphthyl)methylphosphonic Acid], the IC50 is more than 1 µM in assay [2] and 1.4 µM in assay [3]. Also, the inhibition at 100 µM in assay [3] (setting [5]) is 96%.
`O=P(O)(O)C(c1ccccc1)C1CCCCCC1` (stereo not drawn) [Cmpd 5]: the IC50 in assay [2] stood at 23.5 µM. Moreover, the inhibition at 100 µM in assay [3] (setting [5]) was found to be 6%.
As to `O=P(O)(O)C(CCc1ccccc1)c1ccccc1` (stereo not drawn) [Cmpd 9], the half-inhibitory concentration (IC50) in assay [2] is 13.8 µM. In assay [3] (setting [5]), the inhibition at 100 µM turned out to be 30%.
`Cc1cccc(CC(c2cccc(C(F)(F)F)c2)P(=O)(O)O)c1` (stereo not drawn) [Cmpd 31]: the IC50 in assay [2] was determined as 36 µM. Moreover, the inhibition at 100 µM in assay [3] (setting [5]) is 25%.
In the case of `O=P(O)(O)C(Cc1ccccc1)c1cccc(C(F)(F)F)c1` (stereo not drawn) [Cmpd 36], the IC50 in assay [2] was determined as 100 µM. Besides, in assay [3] (setting [5]), the inhibition at 100 µM worked out at 12%.
Turning to `O=[N+]([O-])c1cccc(C(c2ccccc2)P(=O)(O)O)c1` (stereo not drawn) [Cmpd 17], the concentration for half-maximal inhibition (IC50) in assay [2] stood at 17 µM. Moreover, the inhibition at 100 µM in assay [3] (setting [5]) came to 89%.
For `Cc1ccc2c(C(CC3CCCCC3)P(=O)(O)O)cccc2c1` (stereo not drawn) [Cmpd 43], the IC50 in assay [2] was more than 10 µM; in assay [3] (setting [4]), 11.4 µM. Besides, the inhibition at 100 µM in assay [3] (setting [5]) is 73%.
On to `O=P(O)(O)C(Cc1ccc(F)cc1)c1cccc(C(F)(F)F)c1` (stereo not drawn) [Cmpd 37], for which, in assay [2], the IC50 is 30.6 µM. Further, the inhibition at 100 µM in assay [3] (setting [5]) amounted to 25%.
Turning to `Cc1ccc(C)c(C(c2ccccc2)P(=O)(O)O)c1` (stereo not drawn) [Cmpd 19, 2,5-Dimethylphenyl(phenyl)methylphosphonic Acid], the half-maximal inhibitory concentration (IC50) in assay [2] was 36.5 µM. For the same compound, the inhibition at 100 µM in assay [3] (setting [5]) stood at 13%.
In the case of `Cc1ccccc1C(c1ccccc1)P(=O)(O)O` (stereo not drawn) [Cmpd 11], the IC50 in assay [2] came to 37.8 µM. Moreover, the inhibition at 100 µM in assay [3] (setting [5]) turned out to be 13%.
Take `O=P(O)(O)C(c1ccccc1)c1ccccc1F` (stereo not drawn) [Cmpd 12]: in assay [1], the activity at 0.01 µM is 124%. Moreover, the IC50 in assay [2] worked out at 40.9 µM. Besides, the inhibition at 100 µM in assay [3] (setting [5]) worked out at 12%.
As to `O=P(O)(O)C(Cc1ccc(C(F)(F)F)cc1)c1cccc(C(F)(F)F)c1` (stereo not drawn) [Cmpd 32], the half-inhibitory concentration (IC50) in assay [2] was found to be 66.2 µM. Besides, the inhibition at 100 µM in assay [3] (setting [5]) turned out to be 10%.
Take `O=P(O)(O)C(c1ccc(-c2ccccc2)cc1)c1ccc(-c2ccccc2)cc1` [Cmpd 28]: the IC50 was 50 to 100 µM in assay [2] and 17 µM in assay [3] (setting [4]). The inhibition at 100 µM in assay [3] (setting [5]) is 100%.
For the compound `COc1ccc(C(c2ccccc2)P(=O)(O)O)cc1` (stereo not drawn) [Cmpd 24], the IC50 in assay [2] is 36.6 µM. For the same compound, the inhibition at 100 µM in assay [3] (setting [5]) is 28%.
On to `Cc1cccc(C(Cc2ccc(Cl)cc2)P(=O)(O)O)c1` (stereo not drawn) [Cmpd 30], for which the activity at 0.01 µM in assay [1] worked out at 97%. In assay [2], the half-maximal inhibitory concentration (IC50) came out at 81.9 µM.
Take `O=P(O)(O)C(c1ccccc1)c1ccc(F)cc1` (stereo not drawn) [Cmpd 21]: the IC50 in assay [2] came to 44.2 µM. Also, the inhibition at 100 µM in assay [3] (setting [5]) came to 10%.
